According to patent publication US20110071197A1, “BIS-ARYL COMPOUNDS FOR USE AS MEDICAMENTS” (priority 2008, published 2011):

Target: T1, Recombinant human LTC4 synthase (Homo sapiens, UniProt Q16873)
T1 construct: made in house; host or cells: Pichia pastoris
T1 sequence (Q16873 1-150): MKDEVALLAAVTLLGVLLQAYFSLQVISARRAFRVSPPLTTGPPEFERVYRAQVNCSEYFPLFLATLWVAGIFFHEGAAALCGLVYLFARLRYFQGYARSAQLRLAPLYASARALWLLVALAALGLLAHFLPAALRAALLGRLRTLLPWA
Assay: LTC4 synthase in vitro assay (HTRF detection of LTC4)
Assay type: biochemical
Details: compound concentration 3 μM; HTRF method
How it was run: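 Pichia-expressed recombinant human LTC4 synthase at 0.5 μg/ml total protein in PBS pH 7.4 with 5 mM GSH, preincubated 10 min at RT with inhibitor (10 μM final). LTA4 (2.5 μM final) was then added for 5 min at RT. LTC4 formed was read by HTRF.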

**Q.** For `CCCCOc1ccc(S(=O)(=O)NC(=O)Cc2cccc(Oc3ccc(Nc4ccc(Cl)cc4)c(C(=O)O)c3)c2)cc1` [26:1, 5-{3-[2-(4-Butoxybenzenesulfonyl-amino)-2-oxoethyl]phenoxy}-2-(4-chlorophenylamino)benzoic acid], which inhibition at 3 µM is on record?
**A.** 94%

Same assay, conditions: total concentration of title compound in the assay 10 μM; HTRF method

**Q.** How did the inhibition at 10 µM turn out when `CCCCOc1ccc(S(=O)(=O)Nc2ccc(Oc3cccc(NCc4cccc(OC)c4OC)c3)cc2C(=O)O)cc1` [23:2, 2-(4-Butoxybenzenesulfonylamino)-5-[3-(2,3-dimethoxybenzylamino)-phenoxy]benzoic acid] was run?
**A.** 99%

**Q.** How did the inhibition at 10 µM turn out when `CCCCOc1ccc(S(=O)(=O)Nc2ccc(Oc3cccc(NCc4cccc(Cl)c4Cl)c3)cc2C(=O)O)cc1` [23:3, 2-(4-Butoxybenzenesulfonylamino)-5-[3-(2,3-dichlorobenzylamino)-phenoxy]benzoic acid] was run?
**A.** 98%

**Q.** For `CCCCOc1ccc(S(=O)(=O)Nc2ccc(Oc3cccc(NCc4cccc(Cl)c4F)c3)cc2C(=O)O)cc1` [23:4, 2-(4-Butoxybenzenesulfonylamino)-5-[3-(3-chloro-2-fluorobenzylamino)-phenoxy]benzoic acid], which inhibition at 10 µM is on record?
**A.** 99%

**Q.** Which inhibition at 10 µM does the source give for `O=C(O)c1cc(Oc2cccc(NCc3cccc(Cl)c3F)c2)ccc1NS(=O)(=O)c1ccc(Cl)cc1Cl` [23:5, 5-[3-(3-Chloro-2-fluorobenzylamino)-phenoxy]-2-(2,4-dichlorobenzene-sulfonylamino)benzoic acid] here?
**A.** 98%

**Q.** With `CCCCN(c1ccc(Oc2ccc(Nc3ccc(F)c(F)c3)c(C(=O)O)c2)cc1)c1ccc(F)c(F)c1` [24:1, 5-{4-[n-Butyl-(3,4-difluorophenyl)-amino]phenoxy}-2-(3,4-difluoro-phenylamino)benzoic acid] as the compound, how does the inhibition at 10 µM read?
**A.** 93%

**Q.** For `CCCCN(c1ccc(Oc2ccc(Nc3ccc(Cl)cc3)c(C(=O)O)c2)cc1)c1ccc(F)c(F)c1` [24:2], which “% inh.” value is on record?
**A.** 95%

**Q.** `O=C(Nc1ccc(C(F)(F)F)cc1)Nc1ccc(Oc2ccc(S(=O)(=O)Nc3ccc(Cl)cc3)cc2)cc1C(=O)O` [25:1, 5-[4-(4-Chlorophenylsulfamoyl)-phenoxy]-2-[3-(4-trifluoromethyl-phenyl)ureido]benzoic acid] was tested. Which inhibition at 10 µM did it give?
**A.** 98%

**Q.** Which inhibition at 10 µM does the source give for `CCCCOc1ccc(S(=O)(=O)Nc2ccc(Oc3ccc(S(=O)(=O)Nc4ccc(Cl)cc4)cc3)cc2C(=O)O)cc1` [25:2, 2-(4-Butoxy-benzenesulfonyl-amino)-5-[4-(4-chlorophenylsulfamoyl)phenoxy]benzoic acid] here?
**A.** 100%

**Q.** How did the inhibition at 10 µM turn out when `CCCCOc1ccc(S(=O)(=O)Nc2ccc(Oc3ccc(S(=O)(=O)Nc4ccc(F)c(F)c4)cc3)cc2C(=O)O)cc1` [25:3, 2-(4-Butoxybenzenesulfonyl-amino)-5-[4-(3,4-difluorophenyl-sulfamoyl)phenoxy]benzoic acid] was run?
**A.** 100%

**Q.** Which inhibition at 10 µM does the source give for `O=C(Nc1ccc(Oc2ccc(S(=O)(=O)Nc3ccc(F)c(F)c3)cc2)cc1C(=O)O)c1ccc(Cl)cc1Cl` [25:4, 2-(2,4-Dichlorobenzoylamino)-5-[4-(3,4-difluorophenylsulfamoyl)-phenoxy]benzoic acid] here?
**A.** 100%

**Q.** Which inhibition at 10 µM does the source give for `O=C(O)c1cc(Oc2ccc(S(=O)(=O)Nc3ccc(F)c(F)c3)cc2)ccc1NC(=O)c1cccc(Cl)c1Cl` [25:5, 2-(2,3-Dichlorobenzoylamino)-5-[4-(3,4-difluorophenylsulfamoyl)-phenoxy]benzoic acid] here?
**A.** 100%

**Q.** `CC(C)Oc1ccc(C(=O)Nc2ccc(Oc3ccc(S(=O)(=O)Nc4ccc(F)c(F)c4)cc3)cc2C(=O)O)cc1` [25:6, 5-[4-(3,4-Difluoro-phenylsulfamoyl)-phenoxy]-2-(4-isopropoxybenzoyl-amino)benzoic acid] was tested. Which inhibition at 10 µM did it give?
**A.** 100%

**Q.** Which inhibition at 10 µM does the source give for `O=C(Cc1cccc(Oc2ccc(Nc3ccc(Cl)cc3)c(C(=O)O)c2)c1)NS(=O)(=O)c1ccc(F)c(F)c1` [26:2, 2-(4-Chlorophenylamino)-5-{3-[2-(3,4-difluorobenzenesulfonylamino)-2-oxoethyl]phenoxy}benzoic acid] here?
**A.** 93%

**Q.** How did the “% inh.” value turn out when `CCCCOc1ccc(S(=O)(=O)Nc2ccc(Oc3cccc(CC(=O)NS(=O)(=O)c4ccc(F)c(F)c4)c3)cc2C(=O)OC(C)(C)C)cc1` [26:3] was run?
**A.** 95%

**Q.** For `CCCCOc1ccc(S(=O)(=O)Nc2ccc(Oc3cccc(CC(=O)NS(=O)(=O)c4ccc(F)c(F)c4)c3)cc2C(=O)O)cc1` [26:4, 2-(4-Butoxybenzenesulfonylamino)-5-{3-[2-(3,4-difluorobenzenesulfonyl-amino)-2-oxoethyl]phenoxy}benzoic acid], which inhibition at 10 µM is on record?
**A.** 95%

**Q.** For `CCCCOc1ccc(S(=O)(=O)Nc2ccc(Oc3cccc(CC(=O)NS(=O)(=O)c4cccc(Cl)c4F)c3)cc2C(=O)O)cc1` [26:5, 2-(4-Butoxybenzenesulfonylamino)-5-{3-[2-(3-chloro-2-fluorobenzene-sulfonylamino)-2-oxoethyl]phenoxy}-benzoic acid], which inhibition at 10 µM is on record?
**A.** 99%

**Q.** For `CCCCOc1ccc(S(=O)(=O)Nc2ccc(Oc3ccc(Nc4ccc(F)c(F)c4)cc3C(=O)O)cc2C(=O)O)cc1` [Example 1:9, 2-(4-butoxybenzenesulfonyl-amino)-5-[4-(2-carboxy)(3,4-di-fluorophenylamino)phenoxy]-benzoic acid], which “% inh.” value is on record?
**A.** 100%

**Q.** How did the inhibition at 10 µM turn out when `CCCCc1ccc(C(=O)Nc2ccc(Oc3ccc(NS(=O)(=O)c4ccccc4)c(C(=O)OC)c3)cc2C(=O)O)cc1` [Example 7:1, 2-(4-butylbenzamido)-5-(3-(methoxycarbonyl)-4-(phenylsulfonamido)-phenoxy)benzoic acid] was run?
**A.** 95%

**Q.** For `CCCCc1ccc(C(=O)Nc2ccc(Oc3ccc(NS(=O)(=O)c4ccccc4)c(C(=O)O)c3)cc2C(=O)O)cc1` [Example 7:2], which “% inh.” value is on record?
**A.** 100%

**Q.** With `CC(C)(C)c1ccc(C(=O)Nc2ccc(Oc3ccc(NC(=O)c4ccc(Cl)cc4Cl)c(C(=O)O)c3)cc2)cc1` [Example 8:1, 5-(4-(4-tert-butylbenzamido)-phenoxy)-2-(2,4-dichlorobenz-amido)benzoic acid] as the compound, how does the “% inh.” value read?
**A.** 100%

**Q.** With `CC(C)(C)c1ccc(C(=O)Nc2ccc(Oc3ccc(NC(=O)c4ccccc4Cl)c(C(=O)O)c3)cc2)cc1` [Example 8:15, 5-[4-(4-tert-Butylbenzoyl-amino)phenoxy]-2-(2-chloro-benzoylino)benzoic acid] as the compound, how does the “% inh.” value read?
**A.** 98%

**Q.** For `CCCCc1ccc(S(=O)(=O)Nc2ccc(Oc3ccc(NC(=O)c4ccc(C(F)(F)F)cc4)c(C(=O)O)c3)cc2)cc1` [Example 11:1, 5-[4-(4-butylbenzene-sulfonylamino)phenoxy]-2-(4-trifluoromethylbenzoylamino)-benzoic acid], which inhibition at 10 µM is on record?
**A.** 99%

**Q.** `O=C(O)c1cc(Oc2ccc(Nc3ccc(F)cc3)cc2)ccc1Nc1ccc(F)c(F)c1` [Example 12:1, 2-(3,4-difluorophenylamino)-5-(4-(4-fluorophenylamino)-phenoxy)benzoic acid] was tested. Which inhibition at 10 µM did it give?
**A.** 96%

**Q.** Which inhibition at 10 µM does the source give for `O=C(O)c1cc(Sc2ccc(Nc3ccc(Cl)cc3)cc2)ccc1Nc1ccc(Cl)cc1` [Example 14:1, 2-(4-chlorophenylamino)-5-[4-(4-chlorophenylamino)-phenylsulfanyl]benzoic acid] here?
**A.** 98%

**Q.** For `O=C(O)c1cc(Sc2ccc(Nc3ccc(F)c(F)c3)cc2)ccc1Nc1ccc(F)c(F)c1` [Example 14:2, 2-(3,4-difluorophenylamino)-5-[4-(3,4-difluoro-phenylamino)-phenylsulfanyl]-benzoic acid], which inhibition at 10 µM is on record?
**A.** 99%

**Q.** Which inhibition at 10 µM does the source give for `CCCCOc1ccc(S(=O)(=O)Nc2ccc(Oc3ccc(NC(=O)c4ccccc4)cc3)cc2/C=C/C(=O)O)cc1` [Example 22:1, (E)-3-[5-(4-Benzoylaminophenoxy)-2-(4-butoxybenzenesulfonylamino)-phenyl]acrylic acid] here?
**A.** 96%
